Target: T1, human ABHD14B (Homo sapiens, UniProt Q96IU4)
T1 sequence (Q96IU4 1-210): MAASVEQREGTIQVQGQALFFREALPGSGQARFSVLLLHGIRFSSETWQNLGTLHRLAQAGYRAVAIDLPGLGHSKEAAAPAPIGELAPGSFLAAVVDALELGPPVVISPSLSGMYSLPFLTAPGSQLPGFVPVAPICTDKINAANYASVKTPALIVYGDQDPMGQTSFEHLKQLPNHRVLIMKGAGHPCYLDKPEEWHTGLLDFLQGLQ
Experiment: thermal shift assay, Sypro-Orange
Format: binding
Details: 10 mM ligand, 10 μM enzyme, 10 mM Tris pH 8

leftward (lower temperature) thermal shift | Compound
~ 2 °C | CC(=O)SCCNC(=O)CCNC(=O)[C@H](O)C(C)(C)COP(=O)(O)OP(=O)(O)OC[C@H]1O[C@@H](n2cnc3c(N)ncnc32)[C@H](O)[C@@H]1OP(=O)(O)O [acetyl-CoA]
~ 2 °C | CC(C)(COP(=O)(O)OP(=O)(O)OC[C@H]1O[C@@H](n2cnc3c(N)ncnc32)[C@H](O)[C@@H]1OP(=O)(O)O)[C@@H](O)C(=O)NCCC(=O)NCCS [CoA]

— PMC6976303 (Biochemistry, 2019)
